Several values for one entry are separate records, joined by “and”; a condition that tells them apart may be missing. Equal entries are not always repeated.
Test: Single-dose trial, cumulative urine excretion
Format: in vivo, human
Conditions: fasting, urine 0–48 h
Method: Single-dose pharmacokinetics: In the 25 and 50 mg dose groups, serial blood samples were collected at pre-dose (t = 0) and at 0.25, 0.5, 1, 1.5, 2, 2.5, 3, 3.5, 4, 5, 6, 8, 12, 24, 36, and 48 h post-dose. From the 100 to 800 mg dose groups, blood samples were additionally collected at 72 and 96 h post-dose. Plasma was separated from whole blood by refrigerated centrifugation (3,000 rpm, 10 min), within 1 h after sampling, transferred to labeled storage tubes, and stored at −70°C prior to workup and analysis. Urine samples were collected at different time periods: 0–2, 2–4, 4–6, 6–8, 8–10, 10–12, 12–24, and 24–48 h post-dose and the volume was measured immediately after collection from each subject. We preserved 8 ml specimens into 10 ml centrifuge tubes and stored at −70°C for PK assessment.
The processing method of the urine samples was similar to the method used for the plasma samples. For CK, the only difference was in the mobile phase (acetonitrile: 10 mM aqueous ammonium acetate = 50:50, V/V, for plasma samples; acetonitrile: 20 mM aqueous ammonium acetate = 60:40, V/V, for urine samples; acetonitrile, Merck KGaA, Darmstadt, Germany; ammonium acetate, CNW technologies GmbH, Duesseldorf, Germany). As for 20(S)-PPD, neither the IS nor the mobile phase were the same (IS: coumarin for plasma samples and finasteride for urine samples; mobile phase was acetonitrile: 10 mM aqueous ammonium acetate = 50: 50, V/V, for plasma samples, and acetonitrile: 0.1% formic acid aqueous solution = 50: 50, V/V, for urine samples). The calibration curve range for CK was linear from 1.00 to 1002.0 ng·ml^−1 with a correlation coefficient equal to 0.9984, and from 0.15 to 54.30 ng·ml^−1 with a correlation coefficient equal to 0.9978 for 20(S)-PPD. Three levels of QC samples (2.00, 50.10, or 801.60 ng.ml^−1 CK) were prepared in urine for testing accuracy and coefficient of variations (CVs), and the values were 94–103% and 1.06–6.54%, respectively.
Experimental observations provided the plasma CK and 20(S)-PPD concentrations vs. the time data after single-dose administration, including maximum plasma concentration (Cmax) and the time to maximum plasm concentration (Tmax). The area under the curve (AUC) from time zero to the last time point (AUClast) and the AUC extrapolated to infinity (AUCinf) were calculated using the linear trapezoidal rule. The slope (elimination rate constant, K) of the terminal phase of the plasma concentration-time profile was determined, using a weighting factor of 1, by the method of least squares (log-linear regression of at least three data points). The t1/2 was estimated as (ln2)/K. The apparent plasma clearance of the drug after oral administration (CL/F) was expressed as a function of bioavailability (F) and calculated as the dose divided by AUCinf, assuming that the complete systemic bioavailability F = 1. The apparent volume of distribution (V/F) was equal to (CL/F)/K. The mean residence time (MRT) was calculated as the area under the first moments curve (AUMC) divided by AUC. The dose-normalized PK parameters e.g., Cmax/D and AUClast/D, were obtained by dividing each PK result by the administered dose. The cumulative excretion rate was calculated as the amount of unchanged drug in the urine over a time interval divided by the dose and was expressed as thousand points (‰).

CC(C)=CCC[C@](C)(OC1O[C@H](CO)[C@@H](O)[C@H](O)[C@H]1O)[C@H]1CC[C@]2(C)[C@@H]1[C@H](O)C[C@@H]1[C@@]3(C)CC[C@H](O)C(C)(C)[C@@H]3CC[C@]12C (stereo partly drawn) [CK, 20-O-beta-D-glucopyranosyl-20(S)-protopanaxadiol]
Ae, accumulative urine excretion rate (25 mg oral): 0.41 ± 0.29 ‰ | Ae, accumulative urine excretion rate (50 mg oral): 0.46 ‰ and 0.46 ± 0.34 ‰ | Ae, accumulative urine excretion rate (100 mg oral): 0.25 ± 0.13 ‰ | Ae, accumulative urine excretion rate (200 mg oral): 0.27 ± 0.15 ‰ | Ae, accumulative urine excretion rate (400 mg oral): 0.19 ± 0.13 ‰ | Ae, accumulative urine excretion rate (600 mg oral): 0.10 ‰ and 0.10 ± 0.08 ‰ | Ae, accumulative urine excretion rate (800 mg oral): 0.10 ‰ and 0.10 ± 0.04 ‰

Reference: publication PMC5769417, “Single- and Multiple-Dose Trials to Determine the Pharmacokinetics, Safety, Tolerability, and Sex Effect of Oral Ginsenoside Compound K in Healthy Chinese Volunteers” (Frontiers in Pharmacology, 2018)
